The target of one data set is T1, hERG potassium channel (Homo sapiens, UniProt Q12809).
T1 construct: Eurofins
The data set can be described thus: hERG channel binding assay ([3H]dofetilide displacement). The following applies: for inhibition at 10 µM: human, probe [3H]dofetilide. The procedure:
The evaluation of the binding of the compounds to the human hERG potassium channel was carried out as described previously (Eurofins).
Since the blocking of the human potassium channel hERG channel may be responsible for cardiac fibrillation leading to cardiac arrest and death of the patient, the binding of the 3 molecules SG6163F, VP331 and LOPA87 to this receptor was evaluated.
(hERG is a cardiac potassium channel; its block is linked to QT prolongation.)

Data set [1] concerns primary rat neonatal ventricular cardiomyocytes (RNVCs). Nature of the data set: Protection of RNVCs against camptothecin-induced apoptosis (LDH release, propidium iodide). It counts as cell-based. Particulars: camptothecin 10 μM. The procedure:
Neonatal rat cardiomyocytes were isolated as described previously (Wang et al., Cell Death Dis, 2016, 7:e2198).
(§1) A colorimetric assay was used to measure lactate dehydrogenase (LDH), a cytosolic enzyme which is released during permeabilization of the plasma membrane (Promega G1780). The assay was performed using cell culture supernatants obtained from H9C2 or RNVC (rat neonatal ventricular myocyte) cells and lysis buffer (LB) was used as a positive control for total cell lysis. The LDH release was measured by absorbance reading at 490 nm (Infinite spectrofluorimeter, Tecan).
Propidium iodide, a non-permeable fluorescent DNA marker, was used to measure membrane integrity. Propidium iodide at 10 μM was added to the culture medium and a fluorescence reading was performed (for […]: 530 nm; em: 620 nm), the LB was used as a positive control for total cell lysis.
(§2) The effect of the compounds was then evaluated on primary rat neonatal ventricular cardiomyocytes (RNVCs) using the LDH test and propidium iodide staining. […] The absence of proliferative effects of the compounds was also evaluated on the A549 lung cancer cell line for 48 h (FIG. 2C).
Background: LDH in the medium is a marker of cell lysis.

The subject of data set [2] is A549 lung cancer cell line. Nature of the data set: Influence of hits on growth of A549 cancer cells (total LDH after lysis). It counts as cell-based. Particulars: 48 h. The procedure:
The cells were cultured for 6 h in the presence or absence of the hits, and then for 42 h. Finally, the cells were lysed with lysis buffer and the amount of LDH was measured to evaluate the total cell growth.
as §1, §2

The subject of data set [3] is RNVCs. The data set can be described thus: Mitochondrial network and cell volume by confocal microscopy (Mitotracker, calcein-AM, IMARIS). Particulars: 1 and 10 μM, 6 h. It counts as cell-based, rat. The procedure: FIG. 6. Effects on mitochondrial dynamics by fluorescence microscopy The RNVCs were treated with 1 μM hits (FIG. 6A) and 10 μM hits (FIG. 6B) for 6 h and the mitochondrial network was stained with 200 nM of Mitotracker. The mitochondrial network and individual mitochondria were then analyzed using a Leica confocal microscope and IMARIS software. Data are presented as mean±SEM with single-factor ANOVA, and multiple Sidak comparisons. *, p<0.05, **, p<0.01, ***, p<0.001 with respect to DMSO.
FIG. 11: following the treatment of the RNVCs with the compounds as indicated, the cell volume was stained with 4 μM of calcein-AM. The cell volume was then analyzed using the IMARIS software.
Confocal microscopy. On day 0, 4×10^5 neonatal cardiomyocytes were plated overnight on laminin-coated 35 mm culture dishes (10 μg/ml). On day 1, the cells were treated with various compounds at 1 or 10 μM for 6 hours. The cells were incubated with Mitotracker Red 580 at 200 nM for 20 minutes at 37° C., then 4 μM of calcein (Calcein AM, Life Technologies, St Aubin, France) for 10 minutes at 37° C. The images were acquired with a Leica confocal microscope (SP5) (Mannheim, Germany). The mitochondrial network and the 3D model of cell volume were reconstructed using the IMARIS software (Bitplane Company, Zurich, Switzerland); therefore the cell volume, mitochondrial number and volume were analyzed.
Due to the importance of mitochondria and reactive oxygen species (ROS) levels in the fate of cardiomyocyte cells, the hypothesis that the compounds could impact the mitochondrial network was explored. Following treatment of the RNVCs with the compounds tested, the mitochondrial network was stained with 200 nM of Mitotracker and the cell volume with 4 μM of calcein-AM. Thus, the mitochondrial network and the individual mitochondria were then analyzed using the IMARIS software.

Data set [4] concerns RNVCs. Nature of the data set: Mitochondrial ROS production with MitoSOX fluorescent probe. The class given is cell-based, rat. Particulars: 1 μM, 6 h. The procedure: FIG. 12: The RNVCs were treated with 0.1% DMSO, 3 μM rapamycin, 1 μM digitoxigenin, 1 μM digoxin, 1 μM minaprin, 1 μM VP331, 1 μM LOPA87, 10 μM SG6163F for 6 h, then the ROS production was stained with the MitoSOX fluorescent probe.
The RNVCs were treated with 0.01% DMSO, 3 μM rapamycin, […], 1 μM digoxin, 1 μM minaprine, 1 μM VP331, 1 μM LOPA87, 10 μM SG6163F in a serum-free cell culture medium for 6 hours. The contents (50 μg) of a MitoSOX™ mitochondrial superoxide indicator vial (ThermoFisher, M36008) were dissolved in 13 μl dimethyl sulfoxide (DMSO) to prepare a 5 mM MitoSOX™ reagent stock solution. Next, the 5 mM MitoSOX™ reagent stock solution in PBS was diluted to prepare a 5 μM working solution of MitoSOX™ reagent. After treatment, the cells were rinsed twice with hot PBS and then incubated with a MitoSOX reagent working solution for 10 minutes at 37° C. The cells were gently rinsed three times with hot PBS. Red fluorescence was detected with a Leica confocal microscope. Nuclear fluorescence was suppressed and mitochondrial fluorescence intensity was measured using ImageJ software.
ROSs are produced or accumulated as a by-product of mitochondrial activity metabolism. Thus, the ROSs may be a consequence of mitochondrial function or may reflect a defect in the mitochondrial antioxidant system.

In data set [5] the test system is AMP-activated protein kinase (AMPK). The data set can be described thus: Western blot of AMPK phosphorylation in RNVCs. It counts as cell-based, rat. The procedure: FIG. 8D: AMPK alpha2 and phospho-AMPK protein levels in RNVCs. Data are presented as mean±SEM with single-factor ANOVA, and multiple Sidak comparisons. *, p<0.05, **, p<0.01, ***, p<0.001 with respect to DMSO.
The H9C2 cells and RNVCs were detached in LB containing: 50 mM Tris, 150 mM NaCl, 1 mM EDTA, 0.5% deoxycholate, 1% Triton X 100, 0.1% SDS (pH 8.0). The cells were collected and placed on ice for 30 minutes. The cells were then centrifuged at 2000 g for 20 minutes at for 4° C. The supernatant was transferred to a new tube and stored on ice. The protein concentration was determined by BCA assay. The protein samples were diluted with sample buffer (2× Laemmli, Sigma), mixed, and heated for 5 minutes at 95° C. The samples were then loaded into a precast gel with a gradient of 4 to 20% and migrated for 15 minutes at 300 V. After migration, the membrane and the gel were placed on the base of a Trans Blot Turbo cassette (Bio Rad) and the proteins were transferred for 3 minutes at 2.5 V. After transfer, the membrane was blocked with 5% milk in PBS-Tween and incubated with a primary antibody diluted in PBS-Tween containing 5% w/v milk at 4° C. with gentle stirring, overnight. […] The images were recorded with a gel imaging system (Bio Rad). […]
Next, the energy metabolism was analyzed in real time using the Seahorse technology in H9C2 cells.

Read-outs that look alike come from different tables or passages of the source.

T1 sequence (Q12809 whole entry): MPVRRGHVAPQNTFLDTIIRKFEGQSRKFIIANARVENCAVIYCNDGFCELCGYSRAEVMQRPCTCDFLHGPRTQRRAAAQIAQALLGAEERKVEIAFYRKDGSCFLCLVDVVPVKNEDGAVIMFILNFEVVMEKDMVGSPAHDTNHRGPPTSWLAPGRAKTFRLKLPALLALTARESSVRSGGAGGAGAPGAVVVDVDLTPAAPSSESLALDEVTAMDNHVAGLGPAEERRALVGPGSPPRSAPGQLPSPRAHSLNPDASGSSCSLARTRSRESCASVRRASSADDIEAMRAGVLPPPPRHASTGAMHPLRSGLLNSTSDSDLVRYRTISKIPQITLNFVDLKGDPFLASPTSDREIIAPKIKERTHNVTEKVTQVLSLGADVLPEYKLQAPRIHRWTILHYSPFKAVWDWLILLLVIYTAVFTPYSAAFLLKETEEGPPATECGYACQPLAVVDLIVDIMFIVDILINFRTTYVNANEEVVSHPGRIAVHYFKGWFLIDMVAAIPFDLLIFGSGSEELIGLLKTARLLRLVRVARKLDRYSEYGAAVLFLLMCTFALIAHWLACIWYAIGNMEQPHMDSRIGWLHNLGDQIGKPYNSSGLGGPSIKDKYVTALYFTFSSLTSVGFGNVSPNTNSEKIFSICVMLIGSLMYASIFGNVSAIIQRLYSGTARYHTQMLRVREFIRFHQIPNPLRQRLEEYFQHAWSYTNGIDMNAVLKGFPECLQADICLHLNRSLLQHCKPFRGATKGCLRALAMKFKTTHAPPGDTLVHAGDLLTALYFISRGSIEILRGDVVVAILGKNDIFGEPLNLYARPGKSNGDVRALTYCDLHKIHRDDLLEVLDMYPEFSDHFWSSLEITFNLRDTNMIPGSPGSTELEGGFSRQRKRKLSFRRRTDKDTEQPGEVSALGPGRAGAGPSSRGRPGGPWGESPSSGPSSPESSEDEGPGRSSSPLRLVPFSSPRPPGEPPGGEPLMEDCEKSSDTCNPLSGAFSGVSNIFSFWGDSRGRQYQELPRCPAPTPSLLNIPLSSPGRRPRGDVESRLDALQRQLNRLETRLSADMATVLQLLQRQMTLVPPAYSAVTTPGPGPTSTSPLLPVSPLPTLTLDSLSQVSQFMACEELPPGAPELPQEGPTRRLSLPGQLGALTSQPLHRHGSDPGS

As to `CN(C)c1ccc(-c2cc(=O)[nH]c(-c3ccccc3)n2)cc1` [LOPA87], the inhibition at 10 µM at hERG potassium channel (inhibition of tritiated dofetilide binding, only values >50% considered effective, read-out: % inhibit 1st assay) came out at 14.6%; at hERG potassium channel (inhibition of tritiated dofetilide binding, only values >50% considered effective, read-out: % inhibit 2nd assay), 5.3%; on hERG potassium channel (mean of two independent measurements, read-out: % inhibit Mean), 10%. Also, at hERG potassium channel (inhibition of specific binding of [3H]dofetilide in vitro), the “binding to the hERG channel” value is “negligible”. The “inhibition of apoptosis of RNVCs” value in data set [1] was “did not protect”. Moreover, in data set [2], the “effect on A549 cell growth” value is listed as “no proliferative effect”. The “effect on the mitochondrial network” value with RNVCs [3] is reported as “no effect”. The number of mitochondria result in the data set on RNVCs [3] is “no effect”. Also, in the data set on RNVCs [4], the “local level of mitochondrial superoxide anion” value is recorded as “induced an elevation”. Moreover, the “AMPK phosphorylation compared with the DMSO control” value in data set [5] is recorded as 1.5 fold.

The record behind these values is US20240226066A1, “CARDIOPROTECTION BY AUTOPHAGY INDUCTION AND METABOLIC REPROGRAMMING” (UNIVERSITE PARIS-SACLAY, priority 2021, published 2024).
